Laboratory results from US9867795B2, “Nitrated lipids and methods of making and using thereof” (The UAB Research Foundation, priority 2004, dated 2018).

Tests used:
[1] = biological target: T1, hPPARδ (Homo sapiens, UniProt Q03181); experiment: CV-1 PPRE×3 TK-Luciferase transient transfection assay; assay type: cell-based; settings: PPRE reporter, CV-1 cells
T1 construct: For assessing full-length PPAR receptors, CV-1 cells were transiently co-transfected; expressed in transfected cells; host or cells: CV-1 cells
T1 sequence (Q03181 1-441): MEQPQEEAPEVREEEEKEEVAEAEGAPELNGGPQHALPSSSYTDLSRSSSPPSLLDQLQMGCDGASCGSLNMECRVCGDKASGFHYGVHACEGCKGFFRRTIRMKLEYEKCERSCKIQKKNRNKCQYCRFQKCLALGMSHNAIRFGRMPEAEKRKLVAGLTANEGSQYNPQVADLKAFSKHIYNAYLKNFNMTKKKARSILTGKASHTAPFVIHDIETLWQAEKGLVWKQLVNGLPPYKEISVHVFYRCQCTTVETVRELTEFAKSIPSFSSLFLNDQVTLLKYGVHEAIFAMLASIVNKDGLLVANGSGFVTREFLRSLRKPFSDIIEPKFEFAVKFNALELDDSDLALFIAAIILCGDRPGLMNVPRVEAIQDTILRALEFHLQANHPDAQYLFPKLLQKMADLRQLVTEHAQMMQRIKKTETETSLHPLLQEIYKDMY
Experimental: Cell Transient Transfection Assay. CV-1 cells from ATCC (Manassas, Va.) were grown to ˜85% confluence in DMEM/F12 supplemented with 10% FBS, 1% penicillin-streptomycin. Then, cells were transiently co-transfected with a plasmid containing the luciferase gene under regulation by four Gal4 DNA binding elements (UASG×4 TK-Luciferase, a gift from Dr. Ronald M. Evans), in concert with plasmids containing the ligand binding domain for the different nuclear receptors fused to the Gal4 DNA binding domain. For assessing full-length PPAR receptors, CV-1 cells were transiently co-transfected with a plasmid containing the luciferase gene under the control of three tandem PPAR response elements (PPRE) (PPRE×3 TK-Luciferase) and hPPARγ, hPPARα or hPPARδ expression plasmids, respectively. In all cases, fluorescence protein (GFP) expression plasmid was co-transfected as the control for the transfection efficiency. Twenty-four hours after the transfection, cells were cultured for another 24 hours in Optium-MEM (Invitrogen, Carlsbad, Calif.). Then, cells were treated with different compounds as indicated in figures for 24 hours in Optium-MEM. […]
PPAR transient transfection assay. […] In all cases, fluorescence protein (GFP) expression plasmid was co-transfected as the control for transfection efficiency. […]

[2] = Hydrophobic stabilization and micellar partition of LNO2; assay type: physicochemical
Excerpt: (§1) The formation of •NO was followed by EPR (measuring cPTI formation) in the presence of different concentrations of octyl-β-glucopyranoside (OG) and octyl-thio-β-glucopyranoside (OTG). The rate of •NO release was constant and not influenced by these detergents until the critical micellar concentration (CMC) for each was achieved, after which •NO formation was inhibited as the volume of the hydrophobic environment increased (FIG. 24A). Similar results were obtained when measuring •NO formation via conversion of oxymyoglobin to metmyoglobin. Apparent •NO release rates remained constant until OG concentration reached ˜2.8 mg/ml (CMC=2.77 mg/ml (11)). […] The inhibition of the NO2 group loss at 268 nm was paralleled by inhibition of the formation of oxidation products at 320 nm, similarly paralleling the detergent-induced inhibition of •NO release observed by EPR and oxymyoglobin-based detection.
Thus, a plot of 1/v vs. α will yield a linear plot with slope divided by y-axis intercept equal to K−1.

[3] = system: NF-kB pathways; experiment: NF-kB pathway activity (NFkB-response element luciferase reporter, IkB degradation); assay type: cell-based; settings: reporter in response to TNFa; IkB degradation in response to E. coli LPS
[4] = •NO release from LNO2 by oxymyoglobin oxidation
Experimental: Apparent •NO formation was calculated from extents of oxymyoglobin oxidation in the visible wavelength range (spectrum) and at 580 nm (kinetic mode). Initial oxymyoglobin oxidation was calculated using a UV probe Version 1.10 (ε580 14.4 mM^−1 cm^−1). Decomposition of the NO2 group was followed at 268 nm and the appearance of oxidized products at 320 nm.
To monitor the concomitant decomposition of the parent LNO2 molecule, its UV spectrum was first analyzed. […] The decrease in absorbance at 268 nm paralleled •NO release, as detected by both EPR and oxymyoglobin oxidation.
as §1

[5] = pH dependency of •NO formation from LNO2 (EPR, cPTIO reduction); settings: 80 μM LNO2, buffers with different pHs
Experimental: Electron paramagnetic resonance—EPR measurements were performed at room temperature using a Bruker Elexsys E-500 spectrometer equipped with an ER049X microwave bridge and an AquaX liquid sample cell. The following instrument setting were used: modulation frequency, 100 kHz; modulation amplitude, 0.05 G; receiver gain, 60 dB; time constant, 1.28 ms; sweep time, 5.24 s; center field, 3510 G; sweep width, 100 G; power, 20 mW; scan parameter, 16 scans.
Due to limitations of the •NO-cPTIO reaction for quantitating yields of NO, oxymyoglobin was utilized to measure •NO release rates (24).

[6] = LNO2 130 μM, oxymyoglobin 20 μM

Row | Substance | concentration at which PPARδ activation is significantly different from vehicle ([1]; FIG. 17 legend) [µM] | concentration at which PPARδ shows significant activation ([1]; text of Example 3) [nM] | partition coefficient K ([2]; FIG. 28 legend) | stability in organic solvents ([2]; organic solvents such as n-octanol) | activity of NF-kB pathways [3] | apparent rate constant for •NO release ([4]; 100 mM phosphate buffer, 100 μM DTPA, pH 7.4, oxymyoglobin to metmyoglobin) [s⁻¹] | OG concentration up to which apparent •NO release rates remained constant [4, 6] [mg/mL] | OTG concentration at which inhibition of LNO2-dependent •NO release occurred [4, 6] [mg/mL] | pH of maximal •NO release [5]
1 | 9- and 10-nitro-9-cis-octadecenoic acid [OA-NO2] | 1 | ~300 |  |  |  |  |  |  | 
2 | 10-nitro-9,12-octadecadienoic acid and 12-nitro-9,12-octadecadienoic acid [LNO2] |  |  | ~1500 | stable | inhibits activity of NF-kB pathways | 9.67e-06 | ~2.8 | ~7 | 7.4
